Test system: HSP70
Assay: HSP70 levels in Neuro 2a cells, ELISA
Type: cell-based, mouse
Conditions: 100 nM, 48 hrs compound then 24 hrs GGTI-298
Experimental: Mouse neuroblastoma 2a cells were cultured in DMEM with 10% FBS for 24 hrs. […] After 24 hrs cells were harvested and lysates were prepared and analyzed by ELISA for HSP70. Compound ID numbers in table refer to structures in Table 1 and Table 2.

Row | Structure (SMILES) | HSP70 level, ELISA signal (absence of compounds normalized as 1.00)
1 | CC(C)=CCC/C(C)=C/CC/C(C)=C/CC/C(C)=C/CCC(C)OC(=O)NC(C)C (racemic) [Compound 23a, 5E, 9E, 13E-Geranylgeranyl-rac-prop-2-yl iso-propyl carbamate] | 1.21
2 | CC(C)=CCC/C(C)=C/CC/C(C)=C/c1ncc(C)o1 [Compound 15, 5-methyl-2-((1E,5E)-2,6,10-trimethylundeca-1,5,9-trien-1-yl)oxazole] | 1.08
3 | CCCCCCNC(=O)OC(C)CC/C=C(\C)CC/C=C(\C)CC/C=C(\C)CCC=C(C)C (racemic) [Compound 23f, 5E, 9E, 13E-Geranylgeranyl-rac-prop-2-yl n-hexyl carbamate] | 0.91
4 | CCOC(=O)C(C/C=C(\C)CC/C=C(\C)CC/C=C(\C)CCC=C(C)C)C(=O)C(C)C (stereo not shown) [Compound 77] | 1.03
5 | CCOC(=O)C=C1CCCCC1 [Compound 93] | 0.87
6 | CCC(=O)CC/C=C(\C)CC/C=C(\C)CC/C=C(\C)CCC=C(C)C [Compound 61] | 0.98
7 | CCCC(=O)C(C/C=C(\C)CC/C=C(\C)CC/C=C(\C)CCC=C(C)C)C(=O)OCC (stereo not shown) [Compound 70] | 1.07
8 | CC(C)=CCC/C(C)=C/CC/C(C)=C/CC/C(C)=C/CN(C)C1CCCCC1 [Compound 17a, N-Cyclohexyl N-Methyl-2E,6E,10E-Geranylgeranyl amine] | 1.09
9 | CC(C)=CCC/C(C)=C/CC/C(C)=C/CC/C(C)=C/CCC(=O)C(C)C [Compound 74] | 1.08
10 | COc1ccc(NC(=O)OC/C=C(\C)CC/C=C(\C)CC/C=C(\C)CCC=C(C)C)cc1OC [Compound 7t, 3′,4′-Dimethoxyphenyl 2E, 6E, 10E-geranylgeranyl carbamate] | 1.07
11 | CON=C(C)CC/C=C(\C)CC/C=C(\C)CC/C=C(\C)CCC=C(C)C [Compound 104] | 0.90
12 | CC(C)=CCC/C(C)=C/CC/C(C)=C/CC/C(C)=C/C1=N[C@H](C)CO1 [Compound 27d, (R)-4-methyl-2-((1E,5E,9E)-2,6,10,14-tetramethylpentadeca-1,5,9,13-tetraen-1-yl)-4,5-dihydrooxazole] | 1.04
13 | CC(C)=CCC/C(C)=C/CC/C(C)=C/CC/C(C)=C/COC(=O)Nc1ccccc1 [Compound 7n, Phenyl 2E, 6E, 10E-geranylgeranyl carbamate] | 1.20
14 | CCOC(=O)C(C/C=C(\C)CC/C=C(\C)CC/C=C(\C)CCC=C(C)C)C(C)=O (stereo not shown) [Compound 87] | 0.95
15 | CC(=O)CC/C=C(\C)CCC=C1CCCCC1 [Compound 92] | 0.92
16 | CC(C)=CCC/C(C)=C/CC/C(C)=C/CC/C(C)=C/CCC(C)OC(=O)NC1CCCCCC1 (racemic) [Compound 23e, Cycloheptyl 5E, 9E, 13E-geranylgeranyl-rac-prop-2-yl carbamate] | 0.97
17 | C=CCCC(=O)CC/C=C(\C)CC/C=C(\C)CC/C=C(\C)CCC=C(C)C [Compound 146] | 1.13
18 | COCCC(=O)C(C/C=C(\C)CC/C=C(\C)CC/C=C(\C)CCC=C(C)C)C(=O)OC (stereo not shown) [Compound 81] | 1.12
19 | CCOC(=O)/C=C/C=C(\C)CC/C=C(\C)CC/C=C(\C)CCC=C(C)C [Compound 65] | 0.90
20 | CC(C)=CCC/C(C)=C/CC/C(C)=C/CC/C(C)=C/CC1CCCCCC1=O (stereo not shown) [Compound 147] | 0.94

Same assay, conditions: 10uM, 48 hrs compound then 24 hrs GGTI-298

Row | Structure (SMILES) | HSP70 level, ELISA signal (absence of compounds normalized as 1.00)
21 | CC(C)=CCC/C(C)=C/CC/C(C)=C/COC(=O)NC1CCCCCC1 [Compound 8d, Cycloheptyl 2E, 6E-farnesyl carbamate] | 1.33
22 | CC(=O)NC(=S)OC/C=C(\C)CC/C=C(\C)CC/C=C(\C)CCC=C(C)C [Compound 10g, Acetyl 2E,6E,10E-geranylgeranyl thiocarbamate] | 1.60
23 | CC(C)=CCC/C(C)=C/CC/C(C)=C/CC/C(C)=C/COC(=O)c1cc([N+](=O)[O-])cc([N+](=O)[O-])c1 [Compound 2g, 2E, 6E, 10E-Geranylgeranyl-3′,5′-dinitrobenzoate] | 0.91
24 | COc1ccc(-c2nnc(/C=C(\C)CC/C=C(\C)CC/C=C(\C)CCC=C(C)C)o2)cc1 [Compound 29c, 2-(4-methoxyphenyl)-5-((1E,5E,9E)-2,6,10,14-tetramethylpentadeca-1,5,9,13-tetraen-1-yl)-1,3,4-oxadiazole] | 1.06
25 | CC(C)=CCC/C(C)=C/CC/C(C)=C/CC/C(C)=C/c1nnc(-c2cccnc2)o1 [Compound 29e, 2-(pyridin-3-yl)-5-((1E,5E,9E)-2,6,10,14-tetramethylpentadeca-1,5,9,13-tetraen-1-yl)-1,3,4-oxadiazole] | 1.10
26 | COc1cc(NC(=O)OC/C=C(\C)CC/C=C(\C)CC/C=C(\C)CCC=C(C)C)cc(OC)c1OC [Compound 7v, 3′,4′,5′-Trimethoxyphenyl 2E, 6E, 10E-geranylgeranyl carbamate] | 1.13
27 | CC(C)=CCC/C(C)=C/CC/C(C)=C/CC/C(C)=C/c1nnc(-c2ccccc2)o1 [Compound 29a, 2-phenyl-5-((1E,5E,9E)-2,6,10,14-tetramethylpentadeca-1,5,9,13-tetraen-1-yl)-1,3,4-oxadiazole] | 1.22
28 | CCC(C)NC(=S)OC/C=C(\C)CC/C=C(\C)CC/C=C(\C)CCC=C(C)C (stereo not shown) [Compound 10c, sec-Butyryl 2E,6E,10E-geranylgeranyl thiocarbamate] | 1.53
29 | CC(C)=CCC/C(C)=C/CC/C(C)=C/COS(=O)(=O)c1ccccc1 [Compound 6a, 2E, 6E-Farnesyl benzenesulfonate] | 1.11
30 | CCC(C)NC(=S)OC/C=C(\C)CC/C=C(\C)CCC=C(C)C (stereo not shown) [Compound 9b, sec-Butyl 2E, 6E-farnesyl thiocarbamate] | 0.99
31 | CCCCCCCN(C)C/C=C(\C)CC/C=C(\C)CC/C=C(\C)CCC=C(C)C [Compound 17c, N-Heptyl-N-Methyl-2E,6E,10E-Geranylgeranyl amine] | 1.01
32 | CCOC(=O)CNC(=O)OC/C=C(\C)CC/C=C(\C)CCC=C(C)C [Compound 8k, Carboethoxymethyl 2E, 6E-farnesyl carbamate] | 0.99
33 | CC(C)=CCC/C(C)=C/CC/C(C)=C/CC/C(C)=C/CN(C)C1CCCCC1 [Compound 17a, N-Cyclohexyl N-Methyl-2E,6E,10E-Geranylgeranyl amine] | 1.22
34 | CC(C)=CCC/C(C)=C/CC/C(C)=C/COC(=O)NC12CC3CC(CC(C3)C1)C2 [Compound 8e, Adamantyl 2E, 6E-farnesyl carbamate] | 1.09
35 | CCNC(=S)OC/C=C(\C)CC/C=C(\C)CCC=C(C)C [Compound 9a, Ethyl 2E, 6E-farnesyl thiocarbamate] | 0.94
36 | COc1ccc(-c2nnc(/C=C(\C)CC/C=C(\C)CC/C=C(\C)CCC=C(C)C)o2)cc1OC [Compound 29d, 2-(3,4-dimethoxyphenyl)-5-((1E,5E,9E)-2,6,10,14-tetramethylpentadeca-1,5,9,13-tetraen-1-yl)-1,3,4-oxadiazole] | 1.12
37 | CC(C)=CCC/C(C)=C/CC/C(C)=C/CC/C(C)=C/C1=N[C@H](C)CO1 [Compound 27d, (R)-4-methyl-2-((1E,5E,9E)-2,6,10,14-tetramethylpentadeca-1,5,9,13-tetraen-1-yl)-4,5-dihydrooxazole] | 1.37
38 | CC(C)=CCC/C(C)=C/CC/C(C)=C/COC(=O)NC1CCCC1 [Compound 8c, Cyclopentyl 2E, 6E-farnesyl carbamate] | 1.46
39 | CC(C)=CCC/C(C)=C/CC/C(C)=C/CC/C(C)=C/c1nnc(-c2ccncc2)o1 [Compound 29f, 2-(pyridin-4-yl)-5-((1E,5E,9E)-2,6,10,14-tetramethylpentadeca-1,5,9,13-tetraen-1-yl)-1,3,4-oxadiazole] | 1.01
40 | CC(C)=CCC/C(C)=C/CC/C(C)=C/CC/C(C)=C/COC(=O)c1c(C)cc(C)cc1C [Compound 2l, 2E, 6E, 10E-Geranylgeranyl-2′,4′,6′trimethylbenzoate] | 1.05
41 | CC(C)=CCC/C(C)=C/CC/C(C)=C/CC/C(C)=C/COC(=O)Nc1ccc2c(c1)Cc1ccccc1-2 [Compound 7x, 9′H-Fluoren-2′-yl isocyanate 2E, 6E, 10E-geranylgeranyl carbamate] | 1.00
42 | CC(C)=CCC/C(C)=C/CC/C(C)=C/c1cnco1 [Compound 12, 5-((1E,5E)-2,6,10-trimethylundeca-1,5,9-trien-1-yl)oxazole] | 1.01
43 | CC(C)=CCC/C(C)=C/c1nc(-c2ccc(F)cc2)no1 [Compound 35b, (E)-5-(2,6-dimethylhepta-1,5-dien-1-yl)-3-(4-fluorophenyl)-1,2,4-oxadiazole] | 0.95
44 | CC(C)=CCC/C(C)=C/c1nc(-c2ccccc2)co1 [Compound 32, (E)-2-(2,6-dimethylhepta-1,5-dien-1-yl)-4-phenyloxazole] | 0.96
45 | CC(C)=CCC/C(C)=C/CC/C(C)=C/CC/C(C)=C/C1=N[C@H](CC(C)C)CO1 [Compound 27f, (R)-4-isobutyl-2-((1E,5E,9E)-2,6,10,14-tetramethylpentadeca-1,5,9,13-tetraen-1-yl)-4,5-dihydrooxazole] | 0.91
46 | CC(C)=CCC/C(C)=C/CC/C(C)=C/CC/C(C)=C/C1=N[C@@H](CC(C)C)CO1 [Compound 27c, (S)-4-isobutyl-2-((1E,5E,9E)-2,6,10,14-tetramethylpentadeca-1,5,9,13-tetraen-1-yl)-4,5-dihydrooxazole] | 0.95

Source: patent US20150025077A1 (COYOTE PHARMACEUTICALS, INC., priority 2012, published 2015)
